According to US20100298141A1, “SUBSTITUTED PYRIDINE N-OXIDE HERBICIDES” (E. I. DU PONT DE NEMOURS AND COMPANY, priority 2007, published 2010):

Legend:
velvetleaf = assay: Test A pre-/postemergence greenhouse test; type: in vivo, Abutilon theophrasti; conditions: for Plant response rating, Velvetleaf: 0 to 100 scale where 0 is no effect and 100 is complete control; for Velvetleaf plant response rating: 0 to 100 scale
Excerpt: (§1) Seeds of barnyardgrass (Echinochloa crus-galli), crabgrass (Digitaria sanguinalis), giant foxtail (Setaria faberi), morningglory (Ipomoea spp.), redroot pigweed (Amaranthus retroflexus), velvetleaf (Abutilon theophrasti), wheat (Triticum aestivum), and corn (Zea mays) were planted into a blend of loam soil and sand and treated preemergence with a directed soil spray using test compounds formulated in a non-phytotoxic solvent mixture which included a surfactant. At the same time these species were also treated with postemergence applications of test compounds formulated in the same manner. Plants ranged in height from two to ten cm and were in the one- to two-leaf stage for the postemergence treatment. Treated plants and untreated controls were maintained in a greenhouse for approximately ten days, after which time all treated plants were compared to untreated controls and visually evaluated for injury. […] A dash (-) response means no test results.

barnyardgrass [1] = assay: Test A pre-/postemergence greenhouse test; type: in vivo, Echinochloa crus-galli; conditions: for Plant response rating, Barnyardgrass: 0 to 100 scale where 0 is no effect and 100 is complete control; for Barnyardgrass plant response rating: 0 to 100 scale
Excerpt: as §1

umbrella sedge = assay: Test C flooded paddy test; type: in vivo, Cyperus difformis; conditions: Flood
Excerpt: (§2) At time of treatment, test pots were flooded to 3 cm above the soil surface, treated by application of test compounds directly to the paddy water, and then maintained at that water depth for the duration of the test. Treated plants and controls were maintained in a greenhouse for 13 to 15 days, after which time all species were compared to controls and visually evaluated. […] A dash (-) response means no test result.

morningglory = assay: Test A pre-/postemergence greenhouse test; type: in vivo, Ipomoea spp.; conditions: for Plant response rating, Morningglory: 0 to 100 scale where 0 is no effect and 100 is complete control; for Morningglory plant response rating: 0 to 100 scale
Excerpt: as §1

wheat = assay: Test A pre-/postemergence greenhouse test; type: in vivo, Triticum aestivum; conditions: for Plant response rating, Wheat: 0 to 100 scale where 0 is no effect and 100 is complete control; for Wheat plant response rating: 0 to 100 scale
Excerpt: as §1

giant foxtail = assay: Test A pre-/postemergence greenhouse test; type: in vivo, Setaria faberi; conditions: for Plant response rating, Foxtail, Giant: 0 to 100 scale where 0 is no effect and 100 is complete control; for Foxtail, Giant plant response rating: 0 to 100 scale
Excerpt: as §1

redroot pigweed = assay: Test A pre-/postemergence greenhouse test; type: in vivo, Amaranthus retroflexus; conditions: for Plant response rating, Pigweed: 0 to 100 scale where 0 is no effect and 100 is complete control; for Pigweed plant response rating: 0 to 100 scale
Excerpt: as §1

rice = assay: Test C flooded paddy test; type: in vivo, Oryza sativa; conditions: Flood
Excerpt: as §2

crabgrass = assay: Test A pre-/postemergence greenhouse test; type: in vivo, Digitaria sanguinalis; conditions: for Plant response rating, Crabgrass, Large: 0 to 100 scale where 0 is no effect and 100 is complete control; for Crabgrass, Large plant response rating: 0 to 100 scale
Excerpt: as §1

duck salad = assay: Test C flooded paddy test; type: in vivo, Heteranthera limosa; conditions: Flood
Excerpt: as §2

barnyardgrass [2] = assay: Test C flooded paddy test; type: in vivo, Echinochloa crus-galli; conditions: Flood
Excerpt: as §2

corn = assay: Test A pre-/postemergence greenhouse test; type: in vivo, Zea mays; conditions: for Plant response rating, Corn: 0 to 100 scale where 0 is no effect and 100 is complete control; for Corn plant response rating: 0 to 100 scale
Excerpt: as §1

[3] = Postemergence, 500 g ai/ha, 0 is no effect, 100 is complete control
[4] = Preemergence, 125 g ai/ha, 0 no effect, 100 complete control
[5] = 62 g ai/ha, scale 0 to 100 (0 no effect, 100 complete control)
[6] = 250 g ai/ha, scale 0 to 100, 0 no effect, 100 complete control, 13 to 15 days
[7] = 62 g ai/ha, scale 0 to 100, 0 no effect, 100 complete control, 13 to 15 days

| Compound | Plant response rating, Velvetleaf (velvetleaf; Postemergence, 125 g ai/ha) | Velvetleaf plant response rating (velvetleaf; [3]) | Velvetleaf plant response rating (velvetleaf; [4]) | Plant response rating, Velvetleaf (velvetleaf; Preemergence, 500 g ai/ha) | Plant response rating, Barnyardgrass (barnyardgrass [1]; Postemergence, 125 g ai/ha) | Barnyardgrass plant response rating (barnyardgrass [1]; [3]) | Barnyardgrass plant response rating (barnyardgrass [1]; [4]) | Plant response rating, Barnyardgrass (barnyardgrass [1]; Preemergence, 500 g ai/ha) | Plant response rating, Sedge, Umbrella (umbrella sedge; [6]) | Plant response rating, Morningglory (morningglory; Postemergence, 125 g ai/ha) | Morningglory plant response rating (morningglory; [3]) | Morningglory plant response rating (morningglory; [4]) | Plant response rating, Morningglory (morningglory; Preemergence, 500 g ai/ha) | Plant response rating, Wheat (wheat; Postemergence, 125 g ai/ha) | Wheat plant response rating (wheat; [3]) | Wheat plant response rating (wheat; [4]) | Plant response rating, Wheat (wheat; Preemergence, 500 g ai/ha) | Plant response rating, Foxtail, Giant (giant foxtail; Postemergence, 125 g ai/ha) | Foxtail, Giant plant response rating (giant foxtail; [3]) | Foxtail, Giant plant response rating (giant foxtail; [4]) | other results |
| --- | --- | --- | --- | --- | --- | --- | --- | --- | --- | --- | --- | --- | --- | --- | --- | --- | --- | --- | --- | --- | --- |
| Cn1nc(C(F)(F)F)c(CS(=O)(=O)c2cc(C(C)(C)C)cc[n+]2[O-])c1OCC(F)(F)F [Compound 72] | 0 | 40 | 0 | 90 | 0 | 60 | 40 | 100 | 70 | 0 | 40 | 0 | 60 | 0 | 60 | 30 | 70 | 10 | 60 | 100 | Plant response rating, Sedge, Umbrella (umbrella sedge; [5]): 0; Plant response rating, Foxtail, Giant (giant foxtail; Preemergence, 500 g ai/ha): 100; Plant response rating, Pigweed (redroot pigweed; Postemergence, 125 g ai/ha): 20; Pigweed plant response rating (redroot pigweed; [3]): 60; Pigweed plant response rating (redroot pigweed; [4]): 60; Plant response rating, Pigweed (redroot pigweed; Preemergence, 500 g ai/ha): 90; Plant response rating, Rice (rice; [5]): 0; Plant response rating, Rice (rice; [6]): 0; Plant response rating, Crabgrass, Large (crabgrass; Postemergence, 125 g ai/ha): 0; Crabgrass, Large plant response rating (crabgrass; [3]): 60; Crabgrass, Large plant response rating (crabgrass; [4]): 80; Plant response rating, Crabgrass, Large (crabgrass; Preemergence, 500 g ai/ha): 100; Plant response rating, Ducksalad (duck salad; [5]): 0; Plant response rating, Ducksalad (duck salad; [6]): 75; Plant response rating, Barnyardgrass (barnyardgrass [2]; [5]): 0; Plant response rating, Barnyardgrass (barnyardgrass [2]; [6]): 0; Plant response rating, Corn (corn; Postemergence, 125 g ai/ha): 0; Corn plant response rating (corn; [3]): 0; Corn plant response rating (corn; [4]): 0; Plant response rating, Corn (corn; Preemergence, 500 g ai/ha): 50 |
| O=S(=O)(Cc1c(C(F)(F)F)nn(CC(F)(F)F)c1Cl)c1ccc(Cl)c[n+]1[O-] [Compound 50] | 0 | 0 | 0 | 0 | 60 | 70 | 70 | 90 | 40 | 30 | 30 | 30 | 40 | 0 | 0 | 0 | 0 | 70 | 70 | 80 | Plant response rating, Foxtail, Giant (giant foxtail; Preemergence, 500 g ai/ha): 90; Plant response rating, Pigweed (redroot pigweed; Postemergence, 125 g ai/ha): 20; Pigweed plant response rating (redroot pigweed; [3]): 30; Pigweed plant response rating (redroot pigweed; [4]): 80; Plant response rating, Pigweed (redroot pigweed; Preemergence, 500 g ai/ha): 100; Plant response rating, Rice (rice; [7]): 0; Plant response rating, Rice (rice; [6]): 30; Plant response rating, Crabgrass, Large (crabgrass; Postemergence, 125 g ai/ha): 60; Crabgrass, Large plant response rating (crabgrass; [3]): 70; Crabgrass, Large plant response rating (crabgrass; [4]): 60; Plant response rating, Crabgrass, Large (crabgrass; Preemergence, 500 g ai/ha): 90; Plant response rating, Ducksalad (duck salad; [7]): 0; Plant response rating, Ducksalad (duck salad; [6]): 40; Plant response rating, Barnyardgrass (barnyardgrass [2]; [7]): 0; Plant response rating, Barnyardgrass (barnyardgrass [2]; [6]): 45; Plant response rating, Corn (corn; Postemergence, 125 g ai/ha): 0; Corn plant response rating (corn; [3]): 0; Corn plant response rating (corn; [4]): 0; Plant response rating, Corn (corn; Preemergence, 500 g ai/ha): 0 |
